The source made the active and inactive calls. The rule behind the calls is not given here.
Assays:
A-375 [1] = experiment: Radical scavenging activity in 2-ME treated oxidative stress induced human A-375 cells assessed as increase in fluorescent signal at 10 uM incubated for 30 mins by confocal microscopic analysis; format: functional, cell-based
A-375 [2] = experiment: Radical scavenging activity in 2-ME treated oxidative stress induced human A-375 cells assessed as increase in fluorescent signal at 10 uM incubated for 30 mins followed by washout and addition of ascorbic acid by confocal microscopic analysis; format: functional, cell-based
A-375 [3] = experiment: Radical scavenging activity in 2-ME treated oxidative stress induced human A-375 cells assessed as increase in fluorescent signal at 10 uM incubated for 30 mins followed by washout and addition of superoxide dismutase by confocal microscopic analysis; format: functional, cell-based
A-375 [4] = experiment: Radical scavenging activity in 2-ME treated oxidative stress induced tumor bearing BALB/c-nu mouse xenografted in human A-375 cells assessed as increase in fluorescence intensity at 10 uM incubated for 30 mins by confocal microscopic analysis; format: functional, cell-based
A-375 [5] = experiment: Radical scavenging activity in 2-ME treated oxidative stress induced tumor bearing BALB/c-nu mouse xenografted in human A-375 cells assessed as increase in fluorescence intensity at 10 uM incubated for 30 mins followed by washout and addition of ascorbic acid by confocal microscopic analysis; format: functional, cell-based
[6] = Drug localization in 2-ME treated human A-375 cells assessed as fluorescence in mitochondrial apparatus at 10 uM incubated for 30 mins by mito-tracker green dye based confocal microscopy analysis; format: ADME, cell-based; conditions: a-375, 0.5 h
[7] = Drug localization in 2-ME treated human A-375 cells assessed as fluorescence in lysosomes at 10 uM incubated for 30 mins by lyso-tracker red dye based confocal microscopy analysis; format: ADME, cell-based; conditions: a-375, 0.5 h
A-375 [8] = experiment: Antiproliferative activity against human A-375 cells assessed as reduction in cell growth at 1.25 to 10 uM incubated for 72 hrs under hypoxia condition by MTT assay; format: functional, cell-based; conditions: dose 1.25-10 µM
A-375 [9] = experiment: Antiproliferative activity against human A-375 cells assessed as reduction in cell growth at 1.25 to 10 uM incubated for 72 hrs under normoxia condition by MTT assay; format: functional, cell-based; conditions: dose 1.25-10 µM
A-375 [10] = experiment: Antiproliferative activity against human A-375 cells assessed as reduction in colony number at 1.25 to 10 uM measured after 10 days under hypoxia condition by crystal violet staining based analysis; format: functional, cell-based; conditions: dose 1.25-10 µM, time 10.0 day
A-375 [11] = experiment: Antiproliferative activity against human A-375 cells assessed as reduction in colony number at 1.25 to 10 uM measured after 10 days under normoxia condition by crystal violet staining based analysis; format: functional, cell-based; conditions: dose 1.25-10 µM, time 10.0 day
A-375 [12] = experiment: Antitumor activity in human A-375 cells xenografted in BALB/c-nu mouse model assessed as inhibition of tumor growth at 25 to 50 mg/kg, ip administered once daily and measured every 3 days for 18 days; format: functional, organism-based; conditions: dose 25-50 mg/kg, time 18.0 day
[13] = Toxicity in BALB/c-nu mouse xenografted with human A-375 cells assessed as effect on body weight at 25 to 50 mg/kg, ip administered once daily fo 18 days post treatment; format: organism-based; conditions: in vivo, 432 h, dose 25-50 mg/kg, time 18 day
A-375 [14] = experiment: Antitumor activity in human A-375 cells xenografted in BALB/c-nu mouse model assessed as decrease in AMPKalpha phosphorylation 50 mg/kg, ip by Western blot analysis; format: functional, organism-based
A-375 [15] = experiment: Reduction in […] O2 level in human A-375 cells at 2.5 to 10 uM incubated for 72 hrs under hypoxia condition by DHE based flow cytometry analysis; format: functional, cell-based; conditions: dose 2.5-10 µM
A-375 [16] = experiment: Reduction in […] O2 level in human A-375 cells at 2.5 to 10 uM incubated for 72 hrs under normoxia condition by DHE based flow cytometry analysis; format: functional, cell-based; conditions: dose 2.5-10 µM
A-375 [17] = experiment: Reduction in AMPK phosphorylation level in human A-375 cells at upto 20 uM incubated for 72 hrs under hypoxic condition by Western blot analysis; format: functional, cell-based
A-375 [18] = experiment: Reduction in AMPK phosphorylation level in human A-375 cells at upto 20 uM incubated for 72 hrs under normoxic condition by Western blot analysis; format: functional, cell-based
A-375 [19] = experiment: Reduction in extracellular acidification rates in human A-375 cells at upto 10 uM incubated for 6 hrs under hypoxia condition; format: functional, cell-based
A-375 [20] = experiment: Reduction in ATP production in human A-375 cells at upto 10 uM incubated for 6 hrs under hypoxia condition by real-time ATP rate assay; format: functional, cell-based
A-375 [21] = experiment: Increase in oxygen consumption rate in human A-375 cells at upto 10 uM measured after 6 hrs under hypoxia condition; format: functional, cell-based
A-375 [22] = experiment: Reduction in extracellular acidification rates in human A-375 cells at upto 10 uM incubated for 6 hrs under normoxia condition; format: functional, cell-based
A-375 [23] = experiment: Reduction in ATP production in human A-375 cells at upto 10 uM incubated for 6 hrs under normoxia condition by real-time ATP rate assay; format: functional, cell-based
A-375 [24] = experiment: Increase in oxygen consumption rate in human A-375 cells at upto 10 uM measured after 6 hrs under normoxia condition; format: functional, cell-based

O=C(/C=C/c1ccc(O)c(O)c1)O[C@@H]1C[C@](O)(C(=O)O)C[C@@H](O)[C@H]1O [CHLOROGENIC ACID]
Activity (A-375 [1]): Active
Activity (A-375 [2]): inactive
Activity (A-375 [3]): inactive
Activity (A-375 [4]): Active
Activity (A-375 [5]): inactive
Drug uptake [6]: Active
Drug uptake [7]: Not Active
Activity (A-375 [8]): Active
Activity (A-375 [9]): inactive
Activity (A-375 [10]): Active
Activity (A-375 [11]): inactive
Activity (A-375 [12]): Active
Activity [13]: Non-Toxic
Activity (A-375 [14]): Active
Activity (A-375 [15]): Active
Activity (A-375 [16]): inactive
Activity (A-375 [17]): Active
Activity (A-375 [18]): inactive
Activity (A-375 [19]): Active
Activity (A-375 [20]): Active
Activity (A-375 [21]): Active
Activity (A-375 [22]): inactive
Activity (A-375 [23]): inactive
Activity (A-375 [24]): inactive

Source: ChEMBL document CHEMBL5338726, “Characterization of Chlorogenic Acid as a Two-Photon Fluorogenic Probe that Regulates Glycolysis in Tumor Cells under Hypoxia” (J Med Chem, 2023)
